# Measured values reported in patent publication US20030166583A1, “Dermal cytochrome P450 1A inhibitors and enhancers” (priority 2002, published 2003).
# “Also recorded” adds a separate entry of the source. Read-outs that look alike come from different tables or passages of the source.
# Experiments:
# [1] = system: dermal CYP1A; assay: in vitro; conditions: for inhibitory effect on dermal CYP1A activity, in words: at certain concentration (1, 10 or 100 μM); for enhancing effect on dermal CYP1A activity, in words: at certain concentrations (1, 10 or 100 μM)
# Description: (§1) Nude mice were sacrificed by decapitation.
# (§2) The precipitate containing the microsomes was obtained.
# [2] = system: liver CYP1A
# Description: (§3) Nude mice were sacrificed by decapitation. The skin and liver were immediately removed and kept in ice bath or 4° C. […] Connective tissue, blood, and fat were carefully removed from the tissue. Excess water content was removed from the homogenized tissue by tissue papers before the tissue was weighed.
# (§4) The suspension of homogenized tissue in potassium chloride solution was transferred into a Teflon pestle-glass homogenizer for homogenization for six (6) times. Then, potassium chloride solution was added into the homogenized suspension to bring the volume to about four (4) times of the homogenized suspension. The diluted suspension was 5 transferred into a centrifuge tube and centrifuged at 4° C., 9000 xg, for twenty (20) minutes. The supernatant containing microsomes from skin or liver tissue and other soluble substance were removed and the volume of the supernatant was brought up to four (4) times of the weight of the tissue by adding potassium chloride solution. The diluted supernatant was transferred into a centrifuge tube and centrifuged at 4° C., 100,000 xg, for one (1) hour (Beckman L8-80M). The precipitate containing the microsomes was obtained. Potassium chloride solution was added into the precipitate to bring the volume up to four (4) times of the weight of the tissue, and the suspension was centrifuged at 4° C., 100,000 xg for one (1) hour, to obtain the washed microsomes, which were stored at −78° C. in 0.1M KH2PO4-K2HPO4 buffer (pH=7.4).
# (§5) The enzymatic activity of CYP1A was determined based on the activity of 7-ethoxyresorufin-O-deethylase (i.e., for CYP1A) and 7-methoxyresorufin-O-demethylase (i.e., CYP1A2). […] Except for the blank group, the reaction was triggered by adding 0.54 μM NADPH. In the test tube (16×100 mm), the reaction was carried out for ten (10) minutes at constant temperature (37° C.) with vibration and without light Methanol 2.5 ml was added into the reaction mixture to stop the reaction. Protein precipitate was removed from the reaction mixture by centrifuging the reaction mixture at 180 xg for ten (10) minutes. The supernatant was tested for florescent intensity with 550 nm as the excitation wavelength and 585 nm the emission wavelength. The florescent intensity was compared with 0.01 μM-0.1 μM standard Rhodamine B solution to obtain the reading of the CYP1A enzyme activity.
# [3] = system: CYP1A; assay: Liver microsomal CYP1A enzymatic activity, inhibition or enhancement; conditions: nude, mouse
# Description: as §3, §4, §5
# [4] = system: liver CYP1A; assay: as above; conditions: at certain concentration (1, 10 or 100 μM)
# Description: as §3, §4, §5
# [5] = system: CYP1A; assay: in vitro; conditions: nude, mouse
# Description: as §1, §2
# [6] = liver microsomes, pH 7.8, probe 7-ethoxyresorufin
# [7] = pH 7.8, dermal CYP1A activity (% of control group)
# [8] = pH 7.8, inhibition of dermal CYP1A activity
SMILES,"activity at 10 min, 1 µM [3, 6] [%]","activity at 10 min, 10 µM [3, 6] [%]","activity at 10 min, 100 µM [3, 6] [%]","enhancing effect on liver CYP1A activity, in words [4]","activity at 10 min, 1 µM [5, 7] [%]","activity at 10 min, 10 µM [5, 7] [%]","activity at 10 min, 100 µM [5, 7] [%]","activity at 10 min, 1 µM ([5]; pH 7.8) [%]","activity at 10 min, 10 µM ([5]; pH 7.8) [%]","activity at 10 min, 100 µM ([5]; pH 7.8) [%]","inhibition at 10 min, 100 µM ([5]; pH 7.8) [%]","inhibitory effect on liver CYP1A activity, in words [4]","inhibitory effect on dermal CYP1A activity, in words [1]",further results
"O=c1cc(-c2ccccc2)oc2c1ccc1ccccc12 [Alpha-NF, α-naphthoflavone]",–,–,–,–,–,–,–,–,–,–,–,–,–,dose dependence of the inhibitory effect on dermal CYP1A [1]: dose-dependent; inhibition of dermal microsomal CYP1A activity [1]: more than 90%; dermal CYP1A activity (% of control group) ([1]; 100 µM): 0.83%; liver CYP1A activity (% of control group) ([2]; 1 µM): 32.91%; liver CYP1A activity (% of control group) ([2]; 10 µM): 11.06%; liver CYP1A activity (% of control group) ([2]; 100 µM): 7.77%
O=c1c(-c2ccc(O)cc2)coc2cc(O[C@@H]3O[C@H](CO)[C@@H](O)[C@H](O)[C@H]3O)ccc12 [Daidzin],110,112,111,enhancing effect,–,–,–,111,84.2,70.4,~30,–,inhibition effects,"enhancing effect on dermal CYP1A activity, in words [1]: enhancing effects"
COc1ccc(-c2coc3cc(O)ccc3c2=O)cc1 [Formononetin],121,144,145,enhancing effect; also recorded: most enhancing effect,67,109,85.9,–,–,–,–,–,–,"inhibition at 10 min, 1 µM [5, 8]: ~33%"
"CC1(C)[C@@H](O[C@H]2O[C@H](C(=O)O)[C@@H](O)[C@H](O)[C@H]2O[C@@H]2O[C@H](C(=O)O)[C@@H](O)[C@H](O)[C@H]2O)CC[C@]2(C)[C@H]3C(=O)C=C4[C@@H]5C[C@@](C)(C(=O)O)CC[C@]5(C)CC[C@@]4(C)[C@]3(C)CC[C@@H]12 [Glycyrrihizin, Glycyrrhizin]",118,99.9,89.1,enhancing effect,–,–,–,98.9,102,107,–,inhibitory effects,–,–
O=c1c(O[C@@H]2O[C@H](CO)[C@@H](O)[C@H](O)[C@H]2O)c(-c2ccc(O)c(O)c2)oc2cc(O)cc(O)c12 [Isoquercitrin],99,104,95.7,enhancing effect,112,67,44.2,–,–,–,–,inhibitory effects,inhibition effects,"inhibition at 10 min, 100 µM [5, 8]: ~56%; enhancing effect on dermal CYP1A activity, in words [1]: enhancing effects"
O=c1c(O)c(-c2ccc(O)cc2)oc2cc(O)cc(O)c12 [Kaempferol],100,68.9,18.1,–,~34,~22,0,–,–,–,–,inhibitory effects; also recorded: most inhibitory effect; also recorded: most effective inhibitors,–,"inhibition at 10 min, 100 µM [3, 6]: ~82%; inhibition at 10 min, 100 µM [5, 8]: > 90%; dose dependence of the inhibitory effect on dermal CYP1A [1]: dose-dependent effect; dermal CYP1A activity (% of control group) ([1]; nude, mouse, 10 min, 1 µM, pH 7.8): 33.73%; dermal CYP1A activity (% of control group) ([1]; nude, mouse, 10 min, 10 µM, pH 7.8): 22.35%"
CC(Cc1ccc(O)c(O)c1)C(C)Cc1ccc(O)c(O)c1 (stereo not drawn) [Nordihydroguaiaretic acid],140,147,119,enhancing effect; also recorded: most enhancing effect,–,–,–,110,96.6,59.5,~41,–,–,–
O=C(O)c1ccc(O)c(O)c1 [Protocatechuic acid],119,123,107,enhancing effect,138,121,102,–,–,–,–,–,–,–
C[C@@H]1O[C@@H](Oc2c(-c3ccc(O)c(O)c3)oc3cc(O)cc(O)c3c2=O)[C@H](O)[C@H](O)[C@H]1O [Quercitrin],–,104,89.2,enhancing effect,–,–,–,87.8,77.1,75,~25,inhibitory effects,inhibition effects,"activity at 10 min, 1 µM ([3]; pH 7.8): 109%"
C[C@@H]1O[C@@H](OC[C@H]2O[C@@H](Oc3c(-c4ccc(O)c(O)c4)oc4cc(O)cc(O)c4c3=O)[C@H](O)[C@@H](O)[C@@H]2O)[C@H](O)[C@H](O)[C@H]1O [Rutin],117,124,90.7,enhancing effect,94.1,98.4,59.2,–,–,–,–,inhibitory effects,inhibition effects,"inhibition at 10 min, 100 µM [5, 8]: ~41%; enhancing effect on dermal CYP1A activity, in words [1]: enhancing effects"
O=c1ccc2ccc(O)cc2o1 [Umbelliferone],120,119,–,enhancing effect,–,–,–,72.5,52.7,75.8,–,–,–,"inhibition at 10 min, 10 µM ([5]; pH 7.8): ~47%"

# Now from value to compound, other results behind:
"activity at 10 min, 1 µM [3, 6] [%]","activity at 10 min, 10 µM [3, 6] [%]","activity at 10 min, 100 µM [3, 6] [%]","enhancing effect on liver CYP1A activity, in words [4]","activity at 10 min, 1 µM [5, 7] [%]","activity at 10 min, 10 µM [5, 7] [%]","activity at 10 min, 100 µM [5, 7] [%]","activity at 10 min, 1 µM ([5]; pH 7.8) [%]","activity at 10 min, 10 µM ([5]; pH 7.8) [%]","activity at 10 min, 100 µM ([5]; pH 7.8) [%]","inhibition at 10 min, 100 µM ([5]; pH 7.8) [%]",SMILES,"inhibitory effect on liver CYP1A activity, in words [4]","inhibitory effect on dermal CYP1A activity, in words [1]",further results
117,99.9,94.7,enhancing effect,199,130,96.4,–,–,–,–,CC12CCC(CC1)C(C)(C)O2 [Cineole],inhibitory effects,–,"inhibition at 10 min, 100 µM [5, 8]: ~5%"
108,97.3,43.8,enhancing effect,–,–,–,64.3,54.3,32.9,~67,COc1ccc(-c2cc(=O)c3c(O)cc(O[C@@H]4O[C@H](CO[C@@H]5O[C@@H](C)[C@H](O)[C@@H](O)[C@H]5O)[C@@H](O)[C@H](O)[C@H]4O)cc3o2)cc1O [Diosmin],inhibitory effects,–,–
103,104,97.7,enhancing effect,–,–,–,–,57.3,52.2,–,CC(C)[C@@H](C)/C=C/[C@@H](C)[C@H]1CC[C@H]2C3=CC=C4C[C@@H](O)CC[C@]4(C)[C@H]3CC[C@]12C [Ergosterol],inhibitory effects,–,–
109,108,109,enhancing effect,–,–,–,77.4,60.2,35.4,~65,O=c1c(-c2ccc(O)cc2)coc2cc(O)cc(O)c12 [Genistein],–,inhibition effects,–
113,115,101,enhancing effect,–,–,–,88.2,97.2,52.4,~48,CCCCCCCCCCCCO [Lauryl alcohol],–,–,–
94,99.9,87.3,–,–,–,–,–,–,–,–,CC1(C)CC[C@]2(C(=O)O)CC[C@]3(C)C(=CC[C@@H]4[C@@]5(C)CC[C@H](O)C(C)(C)[C@@H]5CC[C@]43C)[C@@H]2C1 [Oleanolic acid],inhibitory effects,inhibition effects,"activity at 10 min, 1 µM ([5]; skin (dermal) microsomes, pH 7.8, probe 7-ethoxyresorufin, dermal CYP1A activity (% of control group), compound 1 μM, skin microsomes, mean of at least 3 repeats): 24%; activity at 10 min, 10 µM ([5]; skin (dermal) microsomes, pH 7.8, probe 7-ethoxyresorufin, dermal CYP1A activity (% of control group), compound 10 μM, skin microsomes, mean of at least 3 repeats): 25.7%; activity at 10 min, 100 µM ([5]; skin (dermal) microsomes, pH 7.8, probe 7-ethoxyresorufin, dermal CYP1A activity (% of control group), compound 100 μM, skin microsomes, mean of at least 3 repeats): 46.7%; inhibition at 10 min, 1 µM ([5]; skin (dermal) microsomes, pH 7.8, probe 7-ethoxyresorufin, inhibition of dermal CYP1A activity, compound 1 μM): ~76%"
123,124,121,enhancing effect,91,105,104,–,–,–,–,C[C@@]12C[C@@]3(O)O[C@@H](O1)[C@]1(COC(=O)c4ccccc4)[C@H]3C[C@@]12O[C@@H]1O[C@H](CO)[C@@H](O)[C@H](O)[C@H]1O [Paeoniflorin],–,–,–
114,86.7,19.2,enhancing effect,–,–,–,67.9,41.9,8.37,~92,O=c1c(O)c(-c2ccc(O)c(O)c2)oc2cc(O)cc(O)c12 [Quercetin],inhibitory effects; also recorded: most inhibitory effect; also recorded: most effective inhibitors,–,–
